Reference: ChEMBL document CHEMBL5465560, “Selectivity Literature for EUbOPEN Chemogenomic Library” (2024)

Columns and labels:
[1] = target: T1, Serine/threonine-protein kinase RIO1 (Homo sapiens) (UniProt Q9BRS2); test: Selectivity interaction (KinomeScan (DiscoverX)) EUB0000229b RIOK1; details: at 10 µM
T1 sequence (whole entry): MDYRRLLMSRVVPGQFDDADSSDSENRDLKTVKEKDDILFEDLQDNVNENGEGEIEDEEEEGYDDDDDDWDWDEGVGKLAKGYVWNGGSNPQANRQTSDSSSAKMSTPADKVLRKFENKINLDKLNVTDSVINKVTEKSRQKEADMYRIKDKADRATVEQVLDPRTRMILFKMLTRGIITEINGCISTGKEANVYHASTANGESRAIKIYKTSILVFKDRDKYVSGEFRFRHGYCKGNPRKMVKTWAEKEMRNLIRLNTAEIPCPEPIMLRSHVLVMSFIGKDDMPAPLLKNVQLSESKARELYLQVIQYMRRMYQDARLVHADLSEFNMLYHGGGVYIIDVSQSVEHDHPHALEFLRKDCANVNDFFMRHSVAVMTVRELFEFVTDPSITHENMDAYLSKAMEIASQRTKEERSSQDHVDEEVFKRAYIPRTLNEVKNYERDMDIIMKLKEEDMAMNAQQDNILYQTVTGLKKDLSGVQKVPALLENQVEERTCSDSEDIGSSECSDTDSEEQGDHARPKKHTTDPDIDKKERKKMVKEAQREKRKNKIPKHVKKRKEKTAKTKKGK

[2] = target: T2, Muscarinic acetylcholine receptor M1 (Homo sapiens) (UniProt P11229); test: Selectivity interaction (Safety Panel 44tm (Eurofins)) EUB0000162b CHRM1; details: at 10 µM
T2 sequence (whole entry): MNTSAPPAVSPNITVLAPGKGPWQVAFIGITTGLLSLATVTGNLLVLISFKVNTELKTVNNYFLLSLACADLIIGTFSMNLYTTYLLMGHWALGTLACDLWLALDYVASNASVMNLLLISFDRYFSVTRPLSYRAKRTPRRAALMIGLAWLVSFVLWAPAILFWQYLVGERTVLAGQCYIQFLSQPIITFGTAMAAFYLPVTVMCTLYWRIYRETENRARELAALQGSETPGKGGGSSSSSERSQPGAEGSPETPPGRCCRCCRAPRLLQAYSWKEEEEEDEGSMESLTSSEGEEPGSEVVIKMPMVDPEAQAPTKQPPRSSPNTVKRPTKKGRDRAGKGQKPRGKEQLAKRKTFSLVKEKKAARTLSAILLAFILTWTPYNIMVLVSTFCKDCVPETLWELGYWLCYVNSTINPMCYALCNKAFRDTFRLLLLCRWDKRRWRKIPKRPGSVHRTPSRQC

[3] = target: Alpha-2B adrenergic receptor (Homo sapiens) (UniProt P18089); test: Selectivity interaction (GPCR panel (PDSP screen)) EUB0001079a ADRA2B; details: at 10 µM
Chain of Alpha-2B adrenergic receptor (Homo sapiens) (P18089 whole entry): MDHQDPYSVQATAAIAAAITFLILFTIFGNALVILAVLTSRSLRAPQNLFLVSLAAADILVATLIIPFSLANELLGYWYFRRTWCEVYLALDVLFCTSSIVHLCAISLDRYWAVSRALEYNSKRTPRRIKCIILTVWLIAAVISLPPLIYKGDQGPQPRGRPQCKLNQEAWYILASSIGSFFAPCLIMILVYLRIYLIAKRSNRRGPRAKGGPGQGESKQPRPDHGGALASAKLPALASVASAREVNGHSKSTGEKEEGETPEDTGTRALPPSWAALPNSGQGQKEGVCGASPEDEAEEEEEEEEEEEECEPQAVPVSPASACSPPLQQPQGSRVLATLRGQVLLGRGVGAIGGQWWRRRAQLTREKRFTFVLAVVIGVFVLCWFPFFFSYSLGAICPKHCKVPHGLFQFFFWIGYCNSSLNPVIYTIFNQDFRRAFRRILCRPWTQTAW

[4] = target: RAC-beta serine/threonine-protein kinase (Homo sapiens) (UniProt P31751); test: Selectivity interaction (KinomeScan (DiscoverX)) EUB0001079a AKT2; details: at 1 µM
Chain of RAC-beta serine/threonine-protein kinase (Homo sapiens) (P31751 whole entry): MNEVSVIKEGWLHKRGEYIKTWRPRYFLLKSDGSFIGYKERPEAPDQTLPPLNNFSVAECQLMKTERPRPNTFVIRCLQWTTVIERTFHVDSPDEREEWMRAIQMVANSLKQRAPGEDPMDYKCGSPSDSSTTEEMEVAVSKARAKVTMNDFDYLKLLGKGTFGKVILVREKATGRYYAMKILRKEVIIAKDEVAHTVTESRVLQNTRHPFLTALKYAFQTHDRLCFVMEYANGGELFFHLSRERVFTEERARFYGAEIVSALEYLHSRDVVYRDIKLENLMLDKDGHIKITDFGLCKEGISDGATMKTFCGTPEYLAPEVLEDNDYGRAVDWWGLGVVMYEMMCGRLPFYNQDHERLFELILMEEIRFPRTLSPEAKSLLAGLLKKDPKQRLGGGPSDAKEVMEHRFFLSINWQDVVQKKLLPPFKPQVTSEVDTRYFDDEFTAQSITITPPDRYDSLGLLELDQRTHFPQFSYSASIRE

[5] = target: T3, Serine/threonine-protein kinase D1 (Homo sapiens) (UniProt Q15139); test: Selectivity interaction (KinomeScan (DiscoverX)) EUB0000666a PRKD1; details: at 10 µM
T3 sequence (whole entry): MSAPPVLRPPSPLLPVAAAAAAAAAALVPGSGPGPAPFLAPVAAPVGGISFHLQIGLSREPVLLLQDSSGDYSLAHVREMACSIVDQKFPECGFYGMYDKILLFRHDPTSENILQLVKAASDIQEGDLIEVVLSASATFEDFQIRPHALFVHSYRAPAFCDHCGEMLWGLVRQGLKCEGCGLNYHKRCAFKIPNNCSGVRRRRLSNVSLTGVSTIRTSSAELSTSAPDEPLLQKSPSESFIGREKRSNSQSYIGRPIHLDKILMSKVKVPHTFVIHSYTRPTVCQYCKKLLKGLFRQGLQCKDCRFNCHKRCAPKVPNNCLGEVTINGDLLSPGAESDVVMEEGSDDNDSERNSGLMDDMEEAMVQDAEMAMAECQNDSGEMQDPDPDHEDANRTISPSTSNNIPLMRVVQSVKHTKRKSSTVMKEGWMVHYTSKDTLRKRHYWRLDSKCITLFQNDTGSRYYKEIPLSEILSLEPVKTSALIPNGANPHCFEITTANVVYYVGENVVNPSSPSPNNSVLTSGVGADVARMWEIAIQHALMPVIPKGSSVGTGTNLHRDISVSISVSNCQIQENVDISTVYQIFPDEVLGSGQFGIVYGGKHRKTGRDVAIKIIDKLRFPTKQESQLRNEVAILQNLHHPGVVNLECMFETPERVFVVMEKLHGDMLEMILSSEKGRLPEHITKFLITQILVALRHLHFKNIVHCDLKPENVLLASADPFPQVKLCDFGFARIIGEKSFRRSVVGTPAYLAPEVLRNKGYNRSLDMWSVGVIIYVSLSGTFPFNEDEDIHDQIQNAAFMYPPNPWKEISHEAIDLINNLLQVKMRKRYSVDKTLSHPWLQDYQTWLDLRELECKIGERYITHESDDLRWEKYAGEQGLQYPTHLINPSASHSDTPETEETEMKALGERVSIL

[6] = target: Tyrosine-protein kinase JAK1 (Homo sapiens, UniProt P23458); details: at 10 µM
Chain of Tyrosine-protein kinase JAK1 (P23458 whole entry): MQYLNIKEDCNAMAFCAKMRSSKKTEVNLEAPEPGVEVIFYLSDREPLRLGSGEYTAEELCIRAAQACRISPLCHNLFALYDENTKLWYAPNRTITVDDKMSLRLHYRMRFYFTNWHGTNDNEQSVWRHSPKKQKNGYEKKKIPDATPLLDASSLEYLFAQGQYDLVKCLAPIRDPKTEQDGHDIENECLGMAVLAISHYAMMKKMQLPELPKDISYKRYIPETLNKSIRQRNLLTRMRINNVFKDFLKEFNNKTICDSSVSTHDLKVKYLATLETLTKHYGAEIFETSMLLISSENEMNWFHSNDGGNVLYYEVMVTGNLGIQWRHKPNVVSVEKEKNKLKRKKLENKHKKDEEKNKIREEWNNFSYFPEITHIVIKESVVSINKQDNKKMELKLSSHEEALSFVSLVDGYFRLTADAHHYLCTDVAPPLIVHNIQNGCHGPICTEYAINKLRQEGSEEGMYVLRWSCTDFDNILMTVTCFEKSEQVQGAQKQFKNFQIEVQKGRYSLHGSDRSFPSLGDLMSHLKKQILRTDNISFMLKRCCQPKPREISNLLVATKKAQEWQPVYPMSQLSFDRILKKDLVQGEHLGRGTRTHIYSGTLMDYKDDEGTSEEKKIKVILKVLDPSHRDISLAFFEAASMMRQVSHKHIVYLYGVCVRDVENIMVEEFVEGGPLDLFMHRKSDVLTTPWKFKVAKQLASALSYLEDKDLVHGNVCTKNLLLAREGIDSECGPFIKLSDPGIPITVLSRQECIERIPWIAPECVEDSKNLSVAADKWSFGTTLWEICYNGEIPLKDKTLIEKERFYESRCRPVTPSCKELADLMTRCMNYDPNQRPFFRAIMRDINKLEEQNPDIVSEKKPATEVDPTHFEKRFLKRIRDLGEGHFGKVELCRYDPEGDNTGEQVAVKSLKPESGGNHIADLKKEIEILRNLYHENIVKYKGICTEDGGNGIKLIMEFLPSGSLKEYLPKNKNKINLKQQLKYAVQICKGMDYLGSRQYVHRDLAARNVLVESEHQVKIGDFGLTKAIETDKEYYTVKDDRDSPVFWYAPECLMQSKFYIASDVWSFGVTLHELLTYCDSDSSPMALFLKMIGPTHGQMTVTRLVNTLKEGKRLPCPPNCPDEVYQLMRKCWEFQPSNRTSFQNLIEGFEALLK

[7] = target: Tyrosine-protein kinase Fgr (Homo sapiens) (UniProt P09769); test: Selectivity interaction (Kinase panel (Z-LYTE Assay)) EUB0001632a FGR; details: at 10 µM
Chain of Tyrosine-protein kinase Fgr (Homo sapiens) (P09769 2-529 limits assumed): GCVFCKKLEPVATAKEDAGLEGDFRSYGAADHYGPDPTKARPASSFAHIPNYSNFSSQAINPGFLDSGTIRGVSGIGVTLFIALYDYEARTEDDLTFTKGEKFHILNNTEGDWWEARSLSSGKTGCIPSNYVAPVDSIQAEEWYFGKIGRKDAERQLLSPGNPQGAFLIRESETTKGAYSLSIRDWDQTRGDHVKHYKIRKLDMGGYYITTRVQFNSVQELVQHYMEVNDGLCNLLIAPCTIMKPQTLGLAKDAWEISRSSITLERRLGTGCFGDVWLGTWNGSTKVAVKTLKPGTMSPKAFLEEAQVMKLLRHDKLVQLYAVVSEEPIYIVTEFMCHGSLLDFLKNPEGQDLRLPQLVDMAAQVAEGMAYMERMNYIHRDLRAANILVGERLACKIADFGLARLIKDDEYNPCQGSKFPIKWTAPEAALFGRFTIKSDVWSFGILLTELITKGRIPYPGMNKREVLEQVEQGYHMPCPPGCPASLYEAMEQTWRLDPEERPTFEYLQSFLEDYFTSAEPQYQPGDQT

[8] = target: Nischarin (Homo sapiens) (UniProt Q9Y2I1); test: Selectivity interaction (Eurofins CEREP Diversity Profile (receptors and ion channels)) EUB0000279b NISCH; details: at 10 µM
Chain of Nischarin (Homo sapiens) (Q9Y2I1 whole entry): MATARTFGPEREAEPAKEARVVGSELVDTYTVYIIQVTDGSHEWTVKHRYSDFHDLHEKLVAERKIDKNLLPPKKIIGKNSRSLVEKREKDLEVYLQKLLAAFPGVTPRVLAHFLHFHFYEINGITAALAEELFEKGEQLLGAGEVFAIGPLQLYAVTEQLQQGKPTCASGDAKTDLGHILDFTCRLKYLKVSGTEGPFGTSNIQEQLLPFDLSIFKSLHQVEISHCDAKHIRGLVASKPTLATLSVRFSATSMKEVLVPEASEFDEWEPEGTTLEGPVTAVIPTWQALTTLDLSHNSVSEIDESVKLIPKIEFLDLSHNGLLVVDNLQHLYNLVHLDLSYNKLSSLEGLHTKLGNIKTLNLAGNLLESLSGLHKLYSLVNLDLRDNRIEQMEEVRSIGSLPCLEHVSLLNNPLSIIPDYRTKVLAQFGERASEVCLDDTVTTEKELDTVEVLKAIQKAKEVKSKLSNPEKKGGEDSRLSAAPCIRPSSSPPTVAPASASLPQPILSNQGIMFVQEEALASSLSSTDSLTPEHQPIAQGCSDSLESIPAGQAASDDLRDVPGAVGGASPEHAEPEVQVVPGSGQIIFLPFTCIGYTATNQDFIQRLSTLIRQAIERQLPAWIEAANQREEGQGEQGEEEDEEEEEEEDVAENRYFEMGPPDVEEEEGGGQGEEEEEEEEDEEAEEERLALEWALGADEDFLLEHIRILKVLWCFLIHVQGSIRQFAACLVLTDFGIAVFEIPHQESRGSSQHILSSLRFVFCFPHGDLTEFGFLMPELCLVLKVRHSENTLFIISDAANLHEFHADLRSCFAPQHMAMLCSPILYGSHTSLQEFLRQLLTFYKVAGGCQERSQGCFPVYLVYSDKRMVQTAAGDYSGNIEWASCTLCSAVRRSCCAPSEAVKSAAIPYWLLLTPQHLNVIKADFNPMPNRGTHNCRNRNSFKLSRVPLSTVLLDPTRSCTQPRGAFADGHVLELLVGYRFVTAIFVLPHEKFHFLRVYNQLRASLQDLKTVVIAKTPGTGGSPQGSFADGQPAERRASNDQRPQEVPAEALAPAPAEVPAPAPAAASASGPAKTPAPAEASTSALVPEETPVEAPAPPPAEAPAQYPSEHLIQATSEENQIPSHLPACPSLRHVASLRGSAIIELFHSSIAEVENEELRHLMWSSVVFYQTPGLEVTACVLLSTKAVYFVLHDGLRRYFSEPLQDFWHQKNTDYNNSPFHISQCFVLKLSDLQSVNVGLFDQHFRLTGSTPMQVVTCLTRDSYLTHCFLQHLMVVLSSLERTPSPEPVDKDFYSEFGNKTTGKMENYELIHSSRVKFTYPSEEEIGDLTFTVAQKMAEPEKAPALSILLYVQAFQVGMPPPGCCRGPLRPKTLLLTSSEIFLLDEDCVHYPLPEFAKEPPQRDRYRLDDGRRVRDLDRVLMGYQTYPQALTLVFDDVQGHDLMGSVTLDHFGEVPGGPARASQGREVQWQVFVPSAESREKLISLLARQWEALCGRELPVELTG

SMILES: COc1cc(N(C)c2ccnc3ccc(C(F)(F)F)cc23)cc(OC)c1OC
- % binding [1]: 95%

SMILES: CN(C)C(=O)Cn1cc(-c2ccc(-c3cncc4ccccc34)cc2)cn1
- % of control [2]: 87%

SMILES: Nc1cnc(N2CCc3cc(S(=O)(=O)Nc4c(F)cc(Cl)cc4F)cc(N4CCCC4=O)c32)nc1 [TP-020n]
- % of inhibition [3]: 0.99%
- % of control [4]: 100%

SMILES: O=C(NOC[C@H](O)CO)c1ccc(F)c(F)c1Nc1ccc(I)cc1F
- % of control [5]: 100%

SMILES: Cc1cc([C@@H](C)Nc2ccccc2C(=O)O)c2nc(N3CCOCC3)cc(=O)n2c1 [AZD-6482]
- % of control [6]: 100%

SMILES: Cn1cc(-n2cnc3c(NCc4nc5cc(Cl)c(Cl)cc5[nH]4)nc(N4CCOCC4)nc32)cn1
- % of control [7]: 1.86%

SMILES: CC(=O)c1cc(-c2ccccc2OCC2CC2)c2ncccn12
- % of control [8]: 87%
